Test results: US6323001A, “Increasing the trehalose content of organisms by transforming them with combinations of the structural genes for trehalose synthase” (BTG International Ltd., priority 1994, dated 2001)

Target: T1, Tre6P synthase activity of truncated trehalose synthase (Saccharomyces cerevisiae, UniProt Q00764)
T1 construct: contained the 57 kDa short chain; made in house; host or cells: baker's yeast (native enzyme, proteolytically truncated during purification)
T1 sequence (Q00764 1-495): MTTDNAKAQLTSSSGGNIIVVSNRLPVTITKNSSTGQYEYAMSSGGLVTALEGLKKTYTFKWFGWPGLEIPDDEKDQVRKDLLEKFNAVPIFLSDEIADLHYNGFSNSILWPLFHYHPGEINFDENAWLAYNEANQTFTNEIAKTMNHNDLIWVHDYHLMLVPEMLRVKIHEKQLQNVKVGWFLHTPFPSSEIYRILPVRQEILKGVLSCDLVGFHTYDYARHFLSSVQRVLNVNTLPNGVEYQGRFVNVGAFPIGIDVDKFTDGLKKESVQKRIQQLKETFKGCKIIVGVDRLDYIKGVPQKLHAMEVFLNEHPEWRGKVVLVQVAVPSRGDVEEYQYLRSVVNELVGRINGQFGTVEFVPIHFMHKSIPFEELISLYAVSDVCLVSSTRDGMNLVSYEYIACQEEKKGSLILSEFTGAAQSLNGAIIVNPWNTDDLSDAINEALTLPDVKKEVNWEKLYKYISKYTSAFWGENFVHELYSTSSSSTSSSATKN
Experiment: Tre6P synthase assay of truncated trehalose synthase
Format: biochemical, baker's yeast
Conditions: 10 mM G6P, 5 mM UDPG, 5 mM F6P, without phosphate = 100%
Description: With microbial materials, Tre6Pase and Tre6P synthase standard assays and other kinetic measurements were made as described by Londesborough & Vuorio [(1991) loc. cit.] except that the standard Tre6P synthase assay mixture contained 5 mM F6P unless stated otherwise.
Truncated trehalose synthase containing the short (57 kDa) chain and the 86 and 93 kDa long chain fragments was prepared according to the method of Londesborough & Vuorio (1991) loc. cit.] for proteolytically activated TPS/P complex. Tre6P synthase and Tre6Pase activities were assayed as described by Londesborough & Vuorio [(1991) loc. cit.]. [N-ethyl-1-^14C]-maleimide (ethyl-labelled NEM; 40 mCi/mmol) was NEC-454 from New England Nuclear. N-ethyl-[2,3-^14 C]-maleimide (ring-labelled NEM; 6 mCi/mmol) was CFA 293 from Amersham International. Both were obtained as solutions in n-pentane and the manufacturer's stated specific activities were assumed to be correct. Unlabelled N-ethyl-maleimide (NEM) was E-3876 from Sigma. It was dissolved in 25 mM HEPES pH 7.0 immediately before use and standardized by absorption measurements at 305 nm, assuming an E^mM of 0.62.
Truncated trehalose synthase was prepared as described by Londesborough & Vuorio [(1991) loc. cit.] and contained the 57 kDa short chain and 86 and 93 kDa fragments of the long chain. Intact trehalose synthase was prepared as in Example 1. Kinetic assays were done at 30° C. as described in General Methods and Materials.

## O=P(O)(O)O [phosphate, K phosphate]
1.3 mM added K phosphate pH 6.8
  Tre6P synthase activity, Truncated Enzyme: 94%
4.0 mM added K phosphate pH 6.8
  Tre6P synthase activity, Truncated Enzyme: 83%
